{
  "source": "patent EP0517160B1",
  "about": "“Extended-release ophthalmic preparations” (INVERNI DELLA BEFFA S.P.A., priority 1991, dated 1992)",
  "origin": "cited, not measured here",
  "data": [
    {"smiles": "C=CC1(C)CC(=O)C2(O)C(C)(O1)C(OC(C)=O)C(O)C1C(C)(C)CCC(O)C12C", "note": "(stereo not drawn) [forskoline, 7β-acetoxy-8,13-epoxy-1α,6β,9α-trihydroxy-labd-14-en-11-one]", "values": [
      {"measurement": "maximum of forskoline that dissolves", "setting": "poloxamer 407 25% w/v in water, at 5°C", "value": 0.12, "unit": "%"},
      {"measurement": "solubility in water (in words)", "setting": "water", "value": "pratically insoluble in water"}
    ]}
  ]
}
